Results as given in publication PMC12212627, “Machine Learning-Based Virtual Screening of Antibacterial Agents against Methicillin-Susceptible and Resistant Staphylococcus aureus” (Journal of Chemical Information and Modeling, 2024).

What was measured:
[1] = test system: S. aureus (ATCC n° 29213), MSSA; experiment: Broth microdilution (CLSI): screening at 100 μM and MIC, MSSA; type: cell-based, Staphylococcus aureus; conditions: for Percentage of growth inhibition MSSA (ATCC 29123): at 100 uM, Table S4
Procedure: (§1) E. coli (ATCC n° […]) – a TEM-1 β-lactamase producing strain, S. aureus (ATCC n° 29213) – herein referred to as MSSA, MRSA (ATCC n° 43300), and two clinical strains of MRSA (n° 5749 and 6154) were used in the biological assays. The antibacterial activity and minimal inhibitory concentration (MIC) of the screened compounds were evaluated with the broth microdilution method in 96-well microplates, according to the Clinical and Laboratory Standards Institute (CLSI) protocol. Initially, compounds were evaluated in a screening assay to identify promising hits. The compounds were dissolved in dimethyl sulfoxide (DMSO) and then diluted in Mueller Hinton broth (MHB; Oxoid, Thermo Scientific, U.K.) to a concentration of 200 μM. After the addition of 100 μL to each well, the same volume of bacterial suspension containing 10^5 CFU/mL was added to each of the previous solutions, resulting in a final compound concentration of 100 μM. A viability control (bacterial suspension only), inhibition controls (MHB containing five times the MIC of penicillin G for MSSA, vancomycin for MRSA strains, and streptomycin for E. coli), a sterility control (medium only), and a vehicle control (DMSO 2% v/v) were included in each assay microplate. After 24 h of incubation at 37 °C, the microplates were visually inspected for inhibition of bacterial growth, and the absorbance at 600 nm of each well was read using a microplate reader spectrophotometer (VersaMax, Molecular Devices, CA). The percentage of growth inhibition was calculated as the percentage of growth reduction compared with the vehicle control. Wells showing no visual bacterial growth (no turbidity) were considered hits. The MIC of the promising compounds in the initial screening were tested as previously described, with a serial dilution of each compound (100–1.56 μM). All conditions were tested in triplicate from at least three independent assays.

[2] = test system: clinical strain of MRSA n° 5749; experiment: Broth microdilution (CLSI): screening at 100 μM and MIC, MRSA clinical strain 5749; type: cell-based, Staphylococcus aureus; conditions: for Percentage of growth inhibition MRSA (5749): at 100 uM, Table S4
Procedure: as §1

[3] = test system: clinical strain of MRSA n° 6154; experiment: Broth microdilution (CLSI): screening at 100 μM and MIC, MRSA clinical strain 6154; type: cell-based, Staphylococcus aureus; conditions: for Percentage of growth inhibition MRSA (6154): at 100 uM, Table S4
Procedure: as §1

[4] = test system: E. coli (ATCC 35218), TEM-1 β-lactamase producing strain; experiment: Broth microdilution (CLSI): screening at 100 μM and MIC, E. coli; type: cell-based; conditions: for Percentage of growth inhibition E. coli (ATCC 35218): at 100 uM, Table S4
Procedure: as §1

MRSA (ATCC n° 43300) = experiment: Broth microdilution (CLSI): screening at 100 μM and MIC, MRSA reference strain; type: cell-based, Staphylococcus aureus; conditions: for Percentage of growth inhibition MRSA (ATCC 43300): at 100 uM, Table S4
Procedure: as §1

MSSA and MRSA strains = experiment: Broth microdilution, results summed up over MSSA and MRSA strains; type: cell-based, Staphylococcus aureus; conditions: tested compounds of Supporting Table S4, 100 μM
Procedure: as §1

[5] = Cytotoxicity, colorimetric MTT assay; type: cell-based; conditions: African green monkey, Vero (ATCC CCL-81) cells, 72 h incubation
Procedure: As for the cytotoxic concentration of 50% (CC50) determination, the Vero (ATCC CCL-81) cell line was cultured in Eagle’s Minimum Essential Medium (MEM) (Cultilab, Brazil). The medium was supplemented with 5% fetal bovine serum (FBS) (Cultilab, Brazil), in addition to 100 IU/mL penicillin (Cellofarm, Brazil), 100 μg/mL streptomycin (Merck, Germany), and 0.25 μg/mL amphotericin B (Cultilab, Brazil). Cells were seeded in 96-well microplates (4.0 × 10^4 cells per well) and incubated at 37 °C and 5% CO2 atmosphere. After 24 h of incubation, 200 μL of fresh medium containing a serial dilution of the compounds (100–1.56 μM) was added to the plates. Serial dilutions of DMSO were used as vehicle controls. After 72 h of incubation under the same conditions, 100 μL of 3-(4,5-dimethylthiazol-2-yl)–2,5-diphenyltetrazolium bromide (MTT) in MEM (0.5 mg/mL) was added to each well. After 3 h of incubation with MTT (ThermoFischer Scientific), the medium was removed, and 100 μL of DMSO was added to each well to solubilize the formazan crystals. After a brief incubation under shaking for 20 min, the absorbance at 570 nm of each well was read using a spectrophotometer (VersaMax, Molecular Devices). The percentages of inhibition of cell viability were calculated by using the vehicle control. The cytotoxic concentration of 50% (CC50) is defined as the lowest concentration of a given compound that can reduce the viability of cultured cells by 50%. Posteriorly, the selectivity index (SI), that is, the ratio between the CC50 and MIC values of each active compound, was calculated. All conditions were tested in triplicate and at least two independent assays. The overall procedures applied in this work are illustrated in Figure .

[6] = broth microdilution, 24 h, 37 °C

Structure (SMILES) | Percentage of growth inhibition MSSA (ATCC 29123) [1] [%] | Percentage of growth inhibition MRSA (5749) [2] [%] | Percentage of growth inhibition MRSA (6154) [3] [%] | Percentage of growth inhibition E. coli (ATCC 35218) [4] [%] | Percentage of growth inhibition MRSA (ATCC 43300) (MRSA (ATCC n° 43300)) [%] | further results
N#Cc1ccccc1OCC(O)COc1ccccc1C#N [S18] | 0 | 0 | 0 | 0 | 0 | 
CC1(C)OCC(CO)N1C(=O)OCc1ccccc1 (stereo not drawn) [S13] | 0 | 0 | 0 | 0 | 0 | 
OC(COc1cccc2ccccc12)COc1cccc2ccccc12 [S17] | 0 | 0 | 0 | 0 | 0 | 
N#Cc1cccc(OCC(O)COc2cccc(C#N)c2)c1 [S19] | 0 | 0 | 0 | 0 | 0 | 
CC(=O)OC1C(C)OC(n2cc(COC3=CC(=O)c4ccccc4C3=O)nn2)C(OC(C)=O)C1OC(C)=O (stereo not drawn) [S33] | 0 | 0 | 0 | 0 | 0 | antibacterial activity (in words) (MSSA and MRSA strains): inactive
CC(C)=CCC1=C(NCC(=O)O)C(=O)c2ccccc2C1=O [S34] | 0 | 0 | 0 | 0 | 0 | 
O=C(NC(Cc1ccc(O)cc1)C(=O)O)OCc1ccccc1 (stereo not drawn) [S42] | 0 | 0 | 0 | 0 | 0 | 
C#CCOC1=C(CC=C(C)C)C(=O)c2ccccc2C1=O [S35] | 0 | 0 | 0 | 0 | 0 | 
O=c1cc(-c2ccc(O)c(O)c2)oc2c(C3OC(CO)C(O)C(O)C3O)c(O)cc(O)c12 (stereo not drawn) [S54] | 0 | 0 | 0 | 0 | 0 | 
O=C(C=Cc1ccccc1)NC(CO)COc1ccc([N+](=O)[O-])cc1 (stereo not drawn) [S14] | 0 | 0 | 0 | 0 | 0 | 
O=C1C(O)=C(Cc2cn(C3OC(CO)C(O)C(O)C3O)nn2)C(=O)c2ccccc21 (stereo not drawn) [S25] | 0 | 0 | 0 | 0 | 0 | 
CCCNC(=O)c1cc2ccccc2[nH]1 [S47] | 0 | 0 | 0 | 0 | 0 | 
O=C(NCCO)c1cc2ccccc2[nH]1 [S48] | 0 | 0 | 0 | 0 | 0 | 
Cc1ccc(OCC(N)COc2ccc(C)cc2)cc1 [Compound 4, 1,3-bis(4-methylphenoxy)propano-2-aminium chloride] |  |  |  |  |  | MIC ([1]; Staphylococcus aureus, ATCC 29123 / MSSA, broth microdilution, 24 h, 37 °C): 50 µM; % of growth inhibition, MSSA (ATCC 29123) ([1]; at the concentration (MIC)): 97.80%; MIC, MRSA (5749) [2, 6]: −; MIC, MRSA (6154) [3, 6]: −; inhibition at 100 µM ([4]; Escherichia coli, ATCC35218, at 100 μM, read-out: inhibition in the initial screening, E. coli): 85.5%; MIC ([4]; Escherichia coli, ATCC35218, broth microdilution, 24 h, 37 °C): 100 µM; % of growth inhibition, E. coli (ATCC 35218) ([4]; at the concentration (MIC)): 87.0%; CC50 at 72 h [5]: 19 ± 6.1 µM; MIC (MRSA (ATCC n° 43300); Staphylococcus aureus, ATCC 43300 / MRSA, broth microdilution, 24 h, 37 °C): 100 µM; % of growth inhibition, MRSA (ATCC 43300) (MRSA (ATCC n° 43300); at the concentration given (MIC or 100 μM where MIC >100)): 90.38%
OCCNCc1cc2ccccc2[nH]1 [S46] | 0 | 0 | 0 | 0 | 0 | 
O=C1C(O)=C(Cc2cn(C3OC(CO)C(O)C(O)C3O)nn2)C(=O)c2ccccc21 (stereo not drawn) [S26] | 0 | 0 | 0 | 0 | 0 | 
CC(=O)NC1C(O)C(O)C(CO)OC1n1cc(CC2=C(O)C(=O)c3ccccc3C2=O)nn1 (stereo not drawn) [S27] | 0 | 0 | 0 | 0 | 0 | 
O=C(CCc1ccccc1)ON1C(=O)CCC1=O [S16] | 0 | 0 | 0 | 0 | 0 | 
NCCNC(=O)c1cc2ccccc2[nH]1 [S45] | 0 | 0 | 0 | 0 | 0 | 
O=C(NCCCN1CCOCC1)c1cc2ccccc2[nH]1 [S49] | 0 | 0 | 0 | 0 | 0 | 
O=C1C=C(OCc2cn(-c3ccccc3)nn2)C(=O)c2ccccc21 [S12] | 0 | 0 | 0 | 0 | 0 | antibacterial activity (in words) (MSSA and MRSA strains): no antibacterial activity
NC(=O)CC(NC(=O)OCc1ccccc1)C(=O)O (stereo not drawn) [S43] | 0 | 0 | 0 | 0 | 0 | 
